Assay results: patent publication US8759339B2, “Pyrrolo[2,1-c][1,4]naphthodiazepine linked piperazine compounds and a process for the preparation thereof” (Council of Scientific & Industrial Research, priority 2011, dated 2014)

What was measured:
[1] = tested on: L-6; experiment: In vitro anticancer activity, MTT assay; type: cell-based; conditions: skeletal cancer cell line; MTT, 48 h continuous drug exposure
Procedure: (§1) In vitro biological activity studies were carried out at the pharmacology division, IICT, Hyderabad. The compounds were evaluated for in vitro anticancer activity against eight tumour cell lines derived from […] cancer types (breast, lung, liver, skeletal, kidney, prostrate, small intestine) as shown in Table 2. For each compound, dose response curves for each cell line were measured at a minimum of five concentrations at 10 fold dilutions. A protocol of 48 h continuous drug exposure was used and a MTT assay was used to estimate cell viability or growth. The concentration causing 50% inhibition (IC50) compared with the control was calculated. Some of the compounds have been evaluated for their in vitro cytotoxicity in eight cell lines from seven human cancer types. The results are expressed as IC50 determined relative to that of untreated control cells (Table-2).

[2] = tested on: COS-1 kidney cancer cell line; experiment: In vitro anticancer activity, MTT assay; type: cell-based; conditions: result in words
Procedure: as §1

[3] = tested on: L-6 skeletal cancer cell line; experiment: In vitro anticancer activity, MTT assay; type: cell-based; conditions: result in words
Procedure: as §1

[4] = In vitro anticancer activity, MTT assay; type: cell-based; conditions: kidney cancer cell line; MTT, 48 h continuous drug exposure; read-out: IC50 COS-1
Procedure: as §1

[5] = tested on: IEC-6 small intestine cell line; experiment: In vitro anticancer activity, MTT assay; type: cell-based; conditions: for in-vitro cytotoxicity in small intestine cancer cell line (IEC-6): result in words; for IC50: small intestine cell line, MTT, 48 h continuous drug exposure, read-out: IC50 IEC-6
Procedure: as §1

[6] = tested on: calf thymus DNA (CT-DNA); experiment: Thermal denaturation studies with duplex-form calf thymus DNA; type: binding; conditions: [PND]/[DNA] molar ratio 1:5, CT-DNA 100 μM, ligand 20 μM, aqueous sodium phosphate buffer pH 7; for ΔTm after incubation at 37° C. for 0 hr: 0 hr at 37° C.; for ΔTm after incubation at 37° C. for 18 hrs: 18 hrs at 37° C.
Procedure: Compounds have been subjected to thermal denaturation studies with duplex-form calf thymus DNA (CT-DNA) using an modification of a reported procedure (Newman, M. S. Carcinog-compr. Surv. 1976, 1, 203; (b) Hecht, S. S.; Loy, M.; Hoffman, Carcinog-compr. Surv. 1976, 1, 325). Working solutions in aqueous buffer (10 mM NaH2PO4/Na2HPO4, 1 mM Na2EDTA, pH 7.00+0.01) containing CT-DNA (100 μm in phosphate) and the PND (pyrrolo naphtha diazepine) (20 μm) have been prepared by addition of concentrated PND (pyrrolo naphtha diazepine) solutions in DMSO to obtain a fixed [PND]/[DNA] molar ratio of 1:5. The DNA-PND (pyrrolo naphtha diazepine) solutions have been incubated at 37° C. for 0 and 18 h prior to analysis. Samples have been monitored at 260 nm using a Beckman DU-800 spectrophotometer fitted with high performance temperature controller, and heated at 1° C. min in the 40-110° C. range. DNA helix→coil transition temperatures (Tm) have been obtained from the maxima in the d(A260)/dT derivative plots. Drug-induced alterations in DNA melting behavior are given by: ΔTm=Tm(DNA+PND)−Tm(DNA alone), where the Tm value for the PND-free CT-DNA is 69.1±0.01.
The DNA binding activity for these novel substituted piperazine linked pyrrolo naphtho diazepine hybrids has been examined by thermal denaturation studies using calf thymus (CT) DNA. […] The data for some of the compounds are included in Table 1 for comparison.

[7] = tested on: PC-3 prostrate cancer cell line; experiment: In vitro anticancer activity, MTT assay; type: cell-based, human; conditions: for IC50: prostrate cancer cell line, MTT, 48 h continuous drug exposure; for in-vitro cytotoxicity in prostrate cancer cell line (PC-3): result in words
Procedure: as §1

[8] = tested on: HEPG2 liver cancer cell line; experiment: In vitro anticancer activity, MTT assay; type: cell-based, human; conditions: for IC50: liver cancer cell line, MTT, 48 h continuous drug exposure, read-out: IC50 HEPG2; for in-vitro cytotoxicity in liver cancer cell line (HEPG2): result in words
Procedure: as §1

[9] = tested on: A549 lung cancer cell line; experiment: In vitro anticancer activity, MTT assay; type: cell-based, human; conditions: for IC50: lung cancer cell line, MTT, 48 h continuous drug exposure, read-out: IC50 A549; for in-vitro cytotoxicity in lung cancer cell line (A549): result in words
Procedure: as §1

[10] = tested on: MCF7 breast cancer cell line; experiment: In vitro anticancer activity, MTT assay; type: cell-based, human; conditions: for IC50: breast cancer cell line, MTT, 48 h continuous drug exposure; for in-vitro cytotoxicity in breast cancer cell line (MCF-7): result in words
Procedure: as §1

[11] = tested on: NCIH460 large cell lung cancer cell line; experiment: In vitro anticancer activity, MTT assay; type: cell-based, human; conditions: for IC50: large cell lung cancer cell line, MTT, 48 h continuous drug exposure; for in-vitro cytotoxicity in large cell lung cancer cell line (NCIH460): result in words
Procedure: as §1

IC50 [4] [µM] | IC50 [5] [µM] | IC50 [7] [µM] | IC50 [8] [µM] | IC50 [9] [µM] | IC50 [10] [µM] | IC50 [11] [µM] | Molecule | IC50 [1] [µM] | in-vitro cytotoxicity in kidney cancer cell line (COS-1) [2] | in-vitro cytotoxicity in skeletal cancer cell line (L-6) [3] | in-vitro cytotoxicity in small intestine cancer cell line (IEC-6) [5] | ΔTm after incubation at 37° C. for 0 hr [6] [°C] | ΔTm after incubation at 37° C. for 18 hrs [6] [°C] | in-vitro cytotoxicity in prostrate cancer cell line (PC-3) [7] | in-vitro cytotoxicity in liver cancer cell line (HEPG2) [8] | in-vitro cytotoxicity in lung cancer cell line (A549) [9] | in-vitro cytotoxicity in breast cancer cell line (MCF-7) [10] | in-vitro cytotoxicity in large cell lung cancer cell line (NCIH460) [11]
0.91 | 0.01 | 0.02 | 0.02 | 0.11 | 0.002 | 0.02 | 9-Methoxy-8-(2-chloroethoxy)-(13aS)-1,2,3,13a-tetrahydro-5H-pyrrolo[2,1-c][1,4]naphthodiazepine-5-one [2a] | 0.002 | exhibiting in-vitro cytotoxicity | exhibiting in-vitro cytotoxicity | exhibiting in-vitro cytotoxicity | 7.1 | 9.5 | exhibiting in-vitro cytotoxicity | exhibiting in-vitro cytotoxicity | exhibiting in-vitro cytotoxicity | exhibiting in-vitro cytotoxicity | exhibiting in-vitro cytotoxicity
2.58 | 0.05 | 0.64 | 0.11 | 2.21 | 0.2 | 0.08 | COc1cc2cc3c(cc2cc1OCCN1CCN(Cc2ccc4c(c2)OCO4)CC1)N=C[C@@H]1CCCN1C3=O [7a, 8-Methoxy-9-(2-[4-(1,3-benzodioxol-5-ylmethyl)piperazino]ethoxyl)(13aS)-1,2,3,13a-tetrahydro-5H-pyrrolo[2,1-c][1,4]naphthodiazepin-5-one] | 0.77 | exhibiting in-vitro cytotoxicity | exhibiting in-vitro cytotoxicity | exhibiting in-vitro cytotoxicity | 4.9 | 6.5 | exhibiting in-vitro cytotoxicity | exhibiting in-vitro cytotoxicity | exhibiting in-vitro cytotoxicity | exhibiting in-vitro cytotoxicity | exhibiting in-vitro cytotoxicity
